This is an account of results in article PMC8815882, “Screening the pandemic response box identified benzimidazole carbamates, Olorofim and ravuconazole as promising drug candidates for the treatment of eumycetoma” (PLoS Neglected Tropical Diseases, 2022).

Like-named read-outs stand apart in the source and are kept apart here.

This test relates to M. mycetomatis genome strain MM55. Nature of the test: CLSI M38-A2 based in vitro susceptibility screening (XTT or resazurin), growth at fixed concentration. The test is classed as cell-based, Madurella mycetomatis. To be noted: Madurella mycetomatis. Background: Tetrazolium dyes change colour on reduction, which living cells bring about.
Setting [1] is: 25 uM, mean of replicates, MM55, read-out: Percentage survival at 25um, 25 uM mean.
Where [2] appears, read: 25 uM, replicate A, MM55, read-out: Percentage survival at 25um, 25 um A.
Where [3] appears, read: 25 uM, replicate B, MM55, read-out: Percentage survival at 25um, 25 uM B.
[4] abbreviates: 25 uM, replicate C, MM55, read-out: Percentage survival at 25um, 25 uM C.
Where [5] appears, read: mean of replicates, MM55, read-out: Percentage survival at 100um, 100 uM mean.
The mark [6] stands for this setting: replicate 1, MM55, read-out: Percentage survival at 100um, 100 uM A.
Where [7] appears, read: replicate 2, MM55, read-out: Percentage survival at 100um, 100 uM A.
The mark [8] stands for this setting: replicate 3, MM55, read-out: Percentage survival at 100um, 100 uM A.
Setting [9] is: 25 uM, mean of three replicates, read-out: Percentage survival at 25um, 25 uM mean.
Where [10] appears, read: 25 uM, replicate A, read-out: Percentage survival at 25um, 25 um A.
Setting [11] is: 25 uM, replicate B, read-out: Percentage survival at 25um, 25 uM B.
Where [12] appears, read: 25 uM, replicate C, read-out: Percentage survival at 25um, 25 uM C.
[13] abbreviates: mean of three replicates, read-out: Percentage survival at 100um, 100 uM mean.
The mark [14] stands for this setting: replicate 1, read-out: Percentage survival at 100um, 100 uM A (first replicate column).
Where [15] appears, read: replicate 2, read-out: Percentage survival at 100um, 100 uM A (second replicate column).
The mark [16] stands for this setting: replicate 3, read-out: Percentage survival at 100um, 100 uM A (third replicate column).
The mark [17] stands for this setting: first replicate column, read-out: Percentage survival at 100um, 100 uM A.
Setting [18] is: second replicate column, read-out: Percentage survival at 100um, 100 uM A.
Where [19] appears, read: third replicate column, read-out: Percentage survival at 100um, 100 uM A.
Where [20] appears, read: 25 uM, mean of three, M. mycetomatis MM55, read-out: Percentage survival at 25um, 25 uM mean.
The mark [21] stands for this setting: 25 uM, replicate A, M. mycetomatis MM55, read-out: Percentage survival at 25um, 25 um A.
The mark [22] stands for this setting: 25 uM, replicate B, M. mycetomatis MM55, read-out: Percentage survival at 25um, 25 uM B.
The mark [23] stands for this setting: 25 uM, replicate C, M. mycetomatis MM55, read-out: Percentage survival at 25um, 25 uM C.
Where [24] appears, read: mean of three, M. mycetomatis MM55, read-out: Percentage survival at 100um, 100 uM mean.
[25] abbreviates: replicate 1, M. mycetomatis MM55, read-out: Percentage survival at 100um, 100 uM A (first replicate column).
Setting [26] is: replicate 2, M. mycetomatis MM55, read-out: Percentage survival at 100um, 100 uM A (second replicate column).
Where [27] appears, read: replicate 3, M. mycetomatis MM55, read-out: Percentage survival at 100um, 100 uM A (third replicate column).

Consider `CN(C(=O)C1(c2ccc(Cl)cc2)CCC1)c1ccccc1` [MMV1581030], for which the activity at 25 µM reads like this: under setting [1], 63.9%; under setting [2], 61.1%; under setting [3], 107%; under setting [4], 23.2%. Moreover, the activity at 100 µM is, setting by setting: under setting [5], 9.02%; under setting [6], 16%; under setting [7], 1.46%; under setting [8], 9.58%.

In the case of `N[C@@H]1CN(c2c(F)cc3c(=O)c(C(=O)O)cn([C@@H]4C[C@@H]4F)c3c2Cl)CC12CC2` [MMV1579850], the activity at 25 µM under setting [9] is 85.6%, the activity at 25 µM under setting [10] worked out at 82.4%, the activity at 25 µM under setting [11] worked out at 85.7% and the activity at 25 µM under setting [12] worked out at 88.6%. The activity at 100 µM reads like this: under setting [13], 83.7%; under setting [14], 86.1%; under setting [16], 82%. For the same compound, the Percent fungal survival at 100 µM under setting [15] was determined as 82.9%.

With `O=C(O)[C@H]1C2CCC(CC2)[C@@H]1Nc1nc(-c2c[nH]c3ncc(F)cc23)ncc1F` [MMV1593516], the activity at 25 µM runs as follows: under setting [9], 97.3%; under setting [10], 98.8%; under setting [11], 105%; under setting [12], 88.2%. Further, the activity at 100 µM under setting [17] worked out at 107%, the activity at 100 µM under setting [13] stood at 98.7%, the activity at 100 µM under setting [18] was determined as 103% and the activity at 100 µM under setting [19] was 86.5%.

Take `CCc1cc(O)c(Oc2ccc(C(N)=O)cc2F)cc1F` [MMV1578564]: the activity at 25 µM under setting [9] was determined as 106%, the activity at 25 µM under setting [10] was 145%, the activity at 25 µM under setting [11] worked out at 87.1% and the activity at 25 µM under setting [12] was 85.3%. For the same compound, the activity at 100 µM reads like this: under setting [13], 80.4%; under setting [14], 82.2%; under setting [16], 80.6%. Besides, the Percent fungal survival at 100 µM under setting [15] worked out at 78.3%.

Regarding `CSc1ccc2c(c1)C(N1CCN(C)CC1)Cc1ccccc1S2` (centres unmarked) [MMV002505], the activity at 25 µM under setting [1] stood at 38.4%, the activity at 25 µM under setting [2] was determined as 7.34%, the activity at 25 µM under setting [3] amounted to 101% and the activity at 25 µM under setting [4] was 6.61%. In addition, the activity at 100 µM under setting [5] stood at 3.79%, the activity at 100 µM under setting [6] is 3.82%, the activity at 100 µM under setting [7] was -0.0923% and the activity at 100 µM under setting [8] was determined as 7.64%.

Take `O=C(c1nc2c(C(F)(F)F)cc(C3CC3)cn2c1Cl)N1CCN([C@H]2CC[C@H](O)CC2)C(=O)C1` [MMV1634396]: the activity at 25 µM by setting is: under setting [9], 94.9%; under setting [10], 99.5%; under setting [11], 104%; under setting [12], 81.4%. The activity at 100 µM under setting [17] amounted to 92.3%, the activity at 100 µM under setting [13] came out at 86.8%, the activity at 100 µM under setting [18] came out at 90.6% and the activity at 100 µM under setting [19] stood at 77.4%.

For `CC(C)c1cc2c(cc1S(=O)(=O)O)[C@@]1(C)CCC[C@@](C)(C(=O)O)[C@@H]1CC2` [MMV1633675], the activity at 25 µM under setting [9] came out at 79.3%, the activity at 25 µM under setting [10] is 73.4%, the activity at 25 µM under setting [11] is 82.6% and the activity at 25 µM under setting [12] was determined as 81.8%. The activity at 100 µM under setting [13] was determined as 82.2%, the activity at 100 µM under setting [14] is 91.1% and the activity at 100 µM under setting [16] worked out at 81.5%. For the same compound, the Percent fungal survival at 100 µM under setting [15] was determined as 74%.

As for `CCc1nc(N)nc(N)c1C#CC(C)c1cc(OC)cc(-c2ccncc2)c1` (centres unmarked) [MMV1580844], the activity at 25 µM is, setting by setting: under setting [20], 31.6%; under setting [21], 86.9%; under setting [22], 5.16%; under setting [23], 2.83%. For the same compound, the activity at 100 µM was -1.56% under setting [24], -1.7% under setting [25] and -1.98% under setting [27]. Further, under setting [26], the Percent fungal survival at 100 µM was -1.01%.

For the compound `C/C(=N\NC(=O)C1CC1c1ccccc1)c1ccc(NC(=O)c2ccco2)cc1` (centres unmarked) [MMV1580487], the activity at 25 µM runs as follows: under setting [1], 83.7%; under setting [2], 79.1%; under setting [3], 93.7%; under setting [4], 78.4%. For the same compound, the activity at 100 µM under setting [5] worked out at 85.2%, the activity at 100 µM under setting [6] was 91.2%, the activity at 100 µM under setting [7] was determined as 88% and the activity at 100 µM under setting [8] stood at 76.5%.

Regarding `CCOC(=O)N[C@@H]1CC[C@@H]2[C@@H](C1)C[C@H]1C(=O)O[C@H](C)[C@H]1[C@H]2/C=C/c1ccc(-c2cccc(F)c2)cn1` [MMV1593515], the activity at 25 µM reads like this: under setting [9], 69.2%; under setting [10], 68.2%; under setting [11], 80.3%; under setting [12], 59.1%. The activity at 100 µM reads like this: under setting [13], 72.9%; under setting [14], 71.5%; under setting [16], 82%. For the same compound, the Percent fungal survival at 100 µM under setting [15] was determined as 65.2%.

As to `CC(C)C(=O)N[C@H]1[C@H]([C@H](O)[C@H](O)CO)OC(C(=O)O)=C[C@@H]1N=[N+]=[N-]` [MMV1782111], the activity at 25 µM amounted to 95.4% under setting [1], 71.1% under setting [2], 133% under setting [3] and 82.3% under setting [4]. Moreover, the activity at 100 µM under setting [5] is 57.6%, the activity at 100 µM under setting [6] was determined as 71%, the activity at 100 µM under setting [7] amounted to 27.4% and the activity at 100 µM under setting [8] came to 74.4%.

Regarding `Cc1ncc([N+](=O)[O-])n1CC(C)O` (centres unmarked) [MMV002287], the activity at 25 µM runs as follows: under setting [9], 111%; under setting [10], 140%; under setting [11], 90.9%; under setting [12], 103%. The activity at 100 µM runs as follows: under setting [13], 100%; under setting [14], 89.4%; under setting [16], 90.2%. In addition, the Percent fungal survival at 100 µM under setting [15] came to 122%.

With `Oc1ccc(NCc2ccccc2OCc2ccccc2)cc1` [MMV1580504], the activity at 25 µM by setting is: under setting [9], 81.4%; under setting [10], 86.2%; under setting [11], 84.4%; under setting [12], 73.7%. Moreover, the activity at 100 µM by setting is: under setting [13], 8.06%; under setting [14], 2.17%; under setting [16], 17.3%. In addition, under setting [15], the Percent fungal survival at 100 µM worked out at 4.7%.

On to `O=c1cc(OCc2ccccc2)ccn1Cc1ccccc1` [MMV1579775], for which the activity at 25 µM is 71.3% under setting [20], 65.3% under setting [21], 61.6% under setting [22] and 87.1% under setting [23]. Further, the activity at 100 µM under setting [24] was 63.4%, the activity at 100 µM under setting [25] worked out at 61.9% and the activity at 100 µM under setting [27] came to 55.4%. For the same compound, under setting [26], the Percent fungal survival at 100 µM was determined as 72.8%.

Take `CCN(CC)CCCC(C)Nc1ccnc2cc(Cl)ccc12` (centres unmarked) [MMV000008]: the activity at 25 µM was found to be 87.2% under setting [10]; 72.9% (read-out: Percentage survival at 25um, 25 uM B); 80.7% (read-out: Percentage survival at 25um, 25 uM C); 80.3% (read-out: Percentage survival at 25um, 25 uM mean). The activity at 100 µM under setting [13] is 62.1%, the activity at 100 µM under setting [14] is 45.5%, the activity at 100 µM under setting [15] turned out to be 61% and the activity at 100 µM under setting [16] was determined as 79.8%.

For `CCCCCCCCC(CP(=O)(O)C(C)N)C(=O)O` (centres unmarked) [MMV1582487], the activity at 25 µM runs as follows: (25 uM, mean of replicates, read-out: Percentage survival at 25um, 25 uM mean) 84.2%; under setting [10], 90.3%; under setting [11], 86.2%; under setting [12], 76.2%. Also, the activity at 100 µM (mean of replicates, read-out: Percentage survival at 100um, 100 uM mean) came out at 95.3%; the activity at 100 µM (replicate 1, read-out: Percentage survival at 100um, 100 uM A) turned out to be 85.8%; the activity at 100 µM (replicate 2, read-out: Percentage survival at 100um, 100 uM A) came out at 103%; the activity at 100 µM (replicate 3, read-out: Percentage survival at 100um, 100 uM A) was 97.5%.
